The source of these data is patent US5109025A, “Therapeutic agent for penal disorders” (Dainippon Ink and Chemicals, Inc., priority 1988, dated 1992).

Data set [1] deals with kidney injury induced by cis-platinum. Nature of the data set: Cis-platinum-induced kidney injury model test. Particulars: for Blood Urea Nitrogen: 100 mg/kg/day oral, 5 days before and 5 days after 17 mg/kg s.c. cis-platinum, serum, mice, **: P < 0.01, *: P < 0.05 vs cis-platinum group (114.7 ± 18.4). Type of data set: in vivo, ddy male mice. The protocol: In this example, tests were conducted to examine the therapeutical activity of THC against kidney injury induced by cis-platinum (cis-DDP) which is an anti-cancer drug and is known to have a very strong effect of inducing functional disorders of the kidney.
A group of ten ddy male mice each weighing from 20 to 25 g were orally administered with 100 mg/kg/day of THC or isoliquiritigenin (positive comparative compound) for 5 continuous days, subcutaneously injected with 17 mg/kg of cis-platinum once on the fifth day, and were treated moreover for 5 continuous days orally administered with THC or isoliquiritigenin in the same manner as above. Thereafter, blood samples were collected, and blood urea nitrogen (BUN) in the serum was measured.
In the test, a group of ten non-treated ddy male mice each weighing from 20 to 25 g were subcutaneously administered once with 17 mg/kg of cis-platinum only. This group was used as control.
For the measurement of blood urea nitrogen, there was used Urea NB-Test Wako (produced by Wako Pure Chemical Industry Co., Ltd.).

In a further data set the test system is mast cells. Nature of the data set: Antiallergic activity: inhibition of histamine liberation from mast cells by Compound 48/80. Particulars: for Liberation Ratio of Histamine / inhibition at 30 µM: 0.03 mM, Compound 48/80-induced; for Liberation Ratio of Histamine: control 82.4, blank 3.4; for inhibition at 30 µM: Rattus norvegicus, Mast cell, read-out: Inhibition Ratio (histamine liberation). Type of data set: cell-based, rat. The protocol:
Locke's solution (10 ml) containing 0.1% by weight of bovine serum albumin was injected into the abdominal cavity of a rat which had been sacrificed by exsanguination. The rat was lightly massaged, then subjected to an abdominal section so that an abdominal solution was collected. The abdominal cavity was also washed with 5 ml of the same solution and the washing solution was collected and mixed with the above abdominal solution. The abdominal solution was centrifuged at 500 rpm for 5 minutes, then 5 ml of cool Locke's solution was added to the sediment. After the sediment had been washed, 3 ml of cool Locke's solution was again added thereto to form a solution of rat peritoneal exudation cells.
Locke's solution (0.5 ml) and 1.0 ml of THC or isoliquiritigenin solution prepared in a concentration of 0.03 mM (THC or isoliquiritigenin was dissolved in a physiological saline solution containing 1% sodium bicarbonate, the resultant solution being diluted with Locke's solution) was added to 0.3 ml of the solution of rat peritoneal exudation cells obtained in (1) above and were incubated at 37° C. for 5 minutes. Then, 0.2 ml each of a Lock's solution of Compound 48/80 (1 mg/100 ml) was added to the solution and the mixture was incubated at 37° C. for 10 minutes. After the reaction was stopped by cooling, the obtained solution was centrifuged at 2,500 rpm for 10 minutes to separate into 1.7 ml of supernatant and 0.3 ml of sediment. Water (0.1 ml) and 0.2 ml of 100% trichloroacetic acid were added to the supernatant, and 1.5 ml of Locke's solution and the 100% trichloroacetic acid were added to the sediment which was then allowed to stand for 30 minutes at room temperature and was centrifuged at 3000 rpm for 15 minutes. A portion (0.35 ml) of each of the supernatant and the supernatant of the sediment was taken and 1.65 ml of water and 0.4 ml of 1N sodium hydroxide were added in turn to each of the supernatants. 0.5% OPT (orthophthalaldehyde) methanol solution (0.1 ml) was added to each of the resultant solutions which were then allowed to react at room temperature for 4 minutes. After the reaction was stopped by the addition of 0.2 ml of 2M citric acid, the fluorescence of each of the reaction solutions was measured by a fluorophotometer.
As a control, Locke's solution was added instead of the solution of THC and, as a blank, the Locke's solution was added instead of THC and Compound 48/80, the other operations being the same as those described above.
The inhibition ratio of THC or isoliquiritigenin for the liberation of histamine by Compound 48/80 is calculated from the following equations: [formula] Ps: Amount of free histamines (in the supernatant) Pr: Amount of remaining histamines (in the sediment) [formula] I: Value of A of THC or isoliquiritigenin C: Value of A of the control
B: Value of A of the blank

The subject of the next data set is ddy mice. Nature of the data set: Toxicity test: minimum lethal dose. The following applies: 5-week old male ddy mice. The class given is in vivo. The procedure: In this example, tests were conducted to confirm the safety of THC, which is the active ingredient of the drug of the present invention.
THC was administered by oral administration or intraperitoneal injection to five 5-week old male ddy mice.

Data set [2] has as its system carragheenin-induced paw edema. Nature of the data set: Antiinflammatory activity: carragheenin-induced paw edema. The class given is in vivo, SD male rat. Particulars: 300 mg/kg, oral, 60 minutes before carragheenin; rat. The procedure: The antiinflammatory activity of THC was tested by using carragheenin-induced paw edema method widely used for the evaluation of the effectiveness of general antiinflammatory drugs (NSAID).
A 1%-λ-carragheenin physiological saline solution (0.1 ml) was subcutaneously injected to the right paw of an SD male rat weighing from 200 to 250 g, and the volume of paw was measured after 30, 60, 90, 120, 180 and 300 minutes, respectively. The test drug (THC) had been administered orally in a dosage of 1.0 ml/200 g 60 minutes before the administration of carragheenin. The control group was administered orally with the solvent only in the same dosage. Edema ratio was calculated according to the following equation.
Edema Ratio=[(Ps-P0)/P0 ]×100
where Ps stands for value measured at a point in time after elapse of a predetermined time, and P0 value indicates a value measured at 0 minute after the administration.

In data set [3] the test system is hydrochloric acid-ethanol-induced ulcer. Nature of the data set: Antiulcer activity: HCl-ethanol ulcer model test. Type of data set: in vivo, SD male rats. Particulars: for Inhibition Ratio (ulcer) / Ulcer Index: Dose 100 (unit not given), oral, n = 5 rats; for Ulcer Index: **: P < 0.01 vs control group (46.7 ± 34.6). The protocol:
Antiulcer activity was tested using hydrochloric acid-ethanol-induced ulcer model test which is widely used for evaluating the effectiveness of antiulcer drugs.
A group of five SD male rats each weighing from 200 to 250 g were starved for 24 hours, and then administered orally with 1.0 ml/200 g of 150 mM hydrochloric acid-60% ethanol. After 1 hour, the animals were sacrificed with ether, and the stomach was taken out from each animal. After pouring 10 ml of physiological saline in each of them the stomachs were dipped in 1% formalin solution for 10 minutes to fix them. Each of the stomachs was incised along the greater curvature (curvatura ventriculi major) and the lengths of mucosal ulcers which appeared in the gastric gland portion were measured under microscope (×10). The sum of the lengths per animal was calculated and defined as ulcer index. Test drugs were administered orally in a dose of 1,0 ml/200 g after 10 minutes from the induction of stress. Cetraxate hydrochloride known as antiulcer drug was used as positive comparative compound.

The mark [4] stands for this setting: compared with isoliquiritigenin.

Structures can show the parent of a compound that is named as a salt.

`O=C(/C=C/c1ccc(O)cc1)c1ccc(O)cc1O` [isoliquiritigenin, reference compound]: in data set [1], the “Blood Urea Nitrogen” value is recorded as 70.6 ± 14.0. Also, in the data set with mast cells, the “Liberation Ratio of Histamine” value is reported as 71.2% and the inhibition at 30 µM turned out to be 14.2%.
Turning to `O=C(/C=C/c1ccc(O)c(O)c1)c1ccc(O)cc1O` [THC, 2',3,4,4'-tetrahydroxychalcone], the minimum lethal dose result with ddy mice (intraperitoneal injection) is on record as “not less than 1,000 mg/kg”. Besides, the minimum lethal dose entry in the data set on ddy mice (oral administration) was “not less than 3,000 mg/kg”. Besides, the “inhibitory effect against carragheenin-induced edema” value in data set [2] is listed as “marked inhibitory effect”. For the same compound, the “Blood Urea Nitrogen” value in data set [1] is recorded as 47.1 ± 12.6. In addition, the “suppression of the increase in blood urea nitrogen due to kidney injury induced by cis-platinum (in words)” value in data set [1] (setting [4]) was “more potently than isoliquiritigenin”. In data set [3], the “Inhibition Ratio (ulcer)” value was 97.3 and the “Ulcer Index” value is recorded as 1.2 ± 2.5. The “inhibitory activity against hydrochloric acid-ethanol-induced ulcer (in words)” value in data set [3] (rat) is on record as “remarkable inhibitory activity”. Moreover, in the data set on mast cells, the “Liberation Ratio of Histamine” value is on record as 10.4% and the inhibition at 30 µM worked out at 91.1%. In addition, in the data set on mast cells (setting [4]), the “inhibition effect on histamine liberation from rat mast cells caused by Compound 48/80 (in words)” value is listed as “more potent than isoliquiritigenin”.
On to `NC[C@H]1CC[C@H](C(=O)Oc2ccc(CCC(=O)O)cc2)CC1` [Cetraxate hydrochloride, reference compound], for which, in data set [3], the “Inhibition Ratio (ulcer)” value came to 75.7 and the “Ulcer Index” value was determined as 11.2 ± 20.0.
